As usually defined, the IC50 is the midpoint of a concentration-inhibition curve.

Some results are limits rather than exact numbers.

For this experiment, the target named is Human immunodeficiency virus type 1 integrase (Human immunodeficiency virus 1, UniProt Q7ZJM1). Description: Inhibition of HIV1 recombinant integrase expressed in Escherichia coli.
Sequence of Human immunodeficiency virus type 1 integrase (Q7ZJM1 whole entry): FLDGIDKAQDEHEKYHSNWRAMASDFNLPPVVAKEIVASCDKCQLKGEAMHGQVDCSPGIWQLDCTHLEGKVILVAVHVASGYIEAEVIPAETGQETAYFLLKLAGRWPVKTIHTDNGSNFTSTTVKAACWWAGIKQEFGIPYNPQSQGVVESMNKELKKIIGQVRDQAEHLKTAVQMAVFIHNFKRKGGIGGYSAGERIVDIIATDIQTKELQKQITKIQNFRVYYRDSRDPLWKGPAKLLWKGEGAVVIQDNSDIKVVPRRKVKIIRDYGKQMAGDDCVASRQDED
`O=C(OC[C@H]1O[C@@H](Oc2c(-c3ccc(O)c(O)c3)oc3cc(O)cc(O)c3c2=O)[C@H](OC(=O)c2cc(O)c(O)c(O)c2)[C@@H](O)[C@H]1O)c1cc(O)c(O)c(O)c1`: the IC50 is 31.5 µM.

Consider `O=C(OC[C@H]1O[C@@H](OC(=O)c2cc(O)c(O)c(O)c2)[C@H](OC(=O)c2cc(O)c(O)c(O)c2)[C@@H](O)[C@@H]1O)c1cc(O)c(O)c(O)c1`, for which the half-inhibitory concentration (IC50) was 44.5 µM.

Regarding `O=C(O[C@H]1[C@H](Oc2c(-c3ccc(O)c(O)c3)oc3cc(O)cc(O)c3c2=O)OC[C@H](O)[C@@H]1O)c1cc(O)c(O)c(O)c1`, the 50% inhibitory concentration (IC50) was 30.9 µM.

As to `O=C(O[C@H]1[C@H](Oc2c(-c3ccc(O)c(O)c3)oc3cc(O)cc(O)c3c2=O)O[C@H](CO)[C@H](O)[C@@H]1O)c1cc(O)c(O)c(O)c1`, the half-inhibitory concentration (IC50) was 45.3 µM.

Turning to `O=c1c(O[C@@H]2OC[C@H](O)[C@H](O)[C@H]2O)c(-c2ccc(O)cc2)oc2cc(O)cc(O)c12`, the IC50 was over 239 µM.

Take `COC(=O)c1cc(O)c(O)c(O)c1` [GALLIC ACID METHYL ESTER]: the IC50 is 155 µM.

For the compound `O=c1c(O[C@@H]2O[C@H](CO)[C@H](O)[C@H](O)[C@H]2O)c(-c2ccc(O)c(O)c2)oc2cc(O)cc(O)c12` [HYPEROSIDE], the IC50 is 139 µM.

As to `O=C(OC[C@H]1O[C@@H](OC(=O)c2cc(O)c(O)c(O)c2)[C@H](OC(=O)c2cc(O)c(O)c(O)c2)[C@@H](OC(=O)c2cc(O)c(O)c(O)c2)[C@@H]1OC(=O)c1cc(O)c(O)c(O)c1)c1cc(O)c(O)c(O)c1` [PENTAGALLOYL GLUCOSE], the half-inhibitory concentration (IC50) is 29.8 µM.

In the case of `C[C@@H]1O[C@@H](Oc2c(-c3ccc(O)c(O)c3)oc3cc(O)cc(O)c3c2=O)[C@H](O)[C@H](O)[C@H]1O` [QUERCITRIN], the 50% inhibitory concentration (IC50) is 168 µM.

Values taken from ChEMBL document CHEMBL1159200, “A new flavonol glycoside gallate ester from Acer okamotoanum and its inhibitory activity against human immunodeficiency virus-1 (HIV-1) integrase” (J Nat Prod, 1998).
